Laboratory results published in PMC6318015 (Cancer research, 2018).

Target: BRD4 (Homo sapiens, UniProt O60885)
Assay: PROTAC-induced BRD4 degradation in HCT116 cells, immunoblot, […] h
Assay type: cell-based

DC50: 23.1 nM
Compound: Cc1ncsc1-c1ccc(CNC(=O)[C@@H]2C[C@@H](O)CN2C(=O)[C@@H](NC(=O)COCCCCOCCCOc2ccc(NC(=O)C[C@@H]3N=C(c4ccc(Cl)cc4)c4c(sc(C)c4C)-n4c(C)nnc43)cc2)C(C)(C)C)cc1 [A743]
